Like-named read-outs stand apart in the source and are kept apart here.
Columns and labels:
Staphylococcus aureus [1] = experiment: Microbicidal activity of the myeloperoxidase system (p-MPO, glucose oxidase, glucose) with amino acids in the presence of blood, CFU plate counts; synergy determination from these CFU; format: cell-based; settings: for Average Viability CFU/ml 50 min / Log Reduction 50 min: MPO 4.7 U/ml, GO 4.2 U/ml
Method in brief: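 Staphylococcus aureus grown 24 hours in TSB at 35° C was washed in saline and added at a final 2-3×10^7 CFU per mL. The bacteria were mixed in 1 mL reactions with porcine myeloperoxidase, glucose oxidase, amino acids, 150 mM sodium chloride and 3% venous whole blood. Adding glucose to 150 mM started killing. After catalase addition, survivors were counted by serial dilution plating on TSA at 37° C for 24 hours.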

Staphylococcus aureus [2] = experiment: Control: microbicidal activity of the amino acid or analogue alone (no glucose, MPO, glucose oxidase) in the presence of blood; format: cell-based; settings: for log reduction at 5000 µM: Staphylococcus aureus, 1 h, read-out: Log Reduction 60 min
Source text: As a control to determine the microbicidal activity of the amino acids alone, the foregoing procedure was followed without replication, except in the absence of glucose, MPO, and glucose oxidase.

[3] = MPO 100 μg/mL, AA 20 mM, 30 min
[4] = MPO 100 μg/mL, AA 20 mM, 60 min
[5] = Table 3, amino acid 5 mM (none: 0 mM), MPO 38 U/ml, GO 33.3 U/ml, blood
[6] = Table 10, single amino acid 2.5 mM, in the presence of blood, 50 min
[7] = Table 11, single amino acid 2.5 mM, in the presence of blood, 50 min
[8] = Table 19, amino acid 3.5 mM, 50 min
[9] = single amino acid 2.5 mM, blood
[10] = amino acid alone 5 mM, MPO 0, GO 0, no glucose, blood, without replication
[11] = Table 7, amino acid analogue 5 mM, MPO 38 U/ml, GO 33.3 U/ml, blood
[12] = L-lysine 5 mM, MPO 9 U/ml, GO 0.833 U/ml, 3% blood
[13] = L-lysine 5 mM, MPO 9 U/ml, GO 8.33 U/ml, 3% blood
[14] = L-lysine 5 mM, MPO 38 U/ml, GO 3.3 U/ml, 3% blood
[15] = L-lysine 5 mM, MPO 38 U/ml, GO 33.3 U/ml, 3% blood
[16] = L-lysine 20 mM, MPO 38 U/ml, GO 3.3 U/ml, 3% blood
[17] = L-lysine 20 mM, MPO 38 U/ml, GO 33.3 U/ml, 3% blood
[18] = L-lysine […], MPO 9 U/ml, GO 0.833 U/ml, 3% blood
[19] = L-lysine […], MPO 9 U/ml, GO 8.33 U/ml, 3% blood
[20] = Table 2, amino acid 5 mM (none: 0 mM), MPO 38 U/ml, GO 33.3 U/ml, blood
[21] = Table 13, single amino acid 2.5 mM, in the presence of blood, 50 min
[22] = Table 14, single amino acid 2.5 mM, in the presence of blood, 50 min

Compound: CC(C)C[C@H](N)C(=O)O [L-Leucine]
- Log 10 (CFU + 1) Survivors (Staphylococcus aureus [1]; MPO 25 μg/mL, AA 5 mM, 30 min): 4.1
- Log 10 (CFU + 1) Survivors (Staphylococcus aureus [1]; MPO 25 μg/mL, AA 5 mM, 60 min): 0.0
- Log 10 (CFU + 1) Survivors (Staphylococcus aureus [1]; MPO 25 μg/mL, AA […], 30 min): 3.9
- Log 10 (CFU + 1) Survivors (Staphylococcus aureus [1]; MPO 25 μg/mL, AA […], 60 min): 0.0
- Log 10 (CFU + 1) Survivors (Staphylococcus aureus [1]; MPO 100 μg/mL, AA 5 mM, 30 min): 0.0
- Log 10 (CFU + 1) Survivors (Staphylococcus aureus [1]; MPO 100 μg/mL, AA 5 mM, 60 min): 0.0
- Log 10 (CFU + 1) Survivors (Staphylococcus aureus [1]; [3]): 0.0
- Log 10 (CFU + 1) Survivors (Staphylococcus aureus [1]; [4]): 0.0
- Average Viability CFU/ml 60 min (Staphylococcus aureus [1]; [5]): 0 CFU/ml
- Log 10 (CFU + 1) Survivors 60 min (Staphylococcus aureus [1]; [5]): 0.0
- Log Reduction 60 min (Staphylococcus aureus [1]; [5]): 7.3
- Average Viability CFU/ml 50 min (Staphylococcus aureus [1]; [6]): 214500 CFU/ml
- Log Reduction 50 min (Staphylococcus aureus [1]; [6]): 2.1
- Average Viability CFU/ml 50 min (Staphylococcus aureus [1]; [7]): 200500 CFU/ml
- Log Reduction 50 min (Staphylococcus aureus [1]; [7]): 2.1
- Average Viability CFU/ml 50 min (Staphylococcus aureus [1]; [8]): 204000 CFU/ml
- Log Reduction 50 min (Staphylococcus aureus [1]; [8]): 2.1
- Average Viability CFU/ml 50 min (Staphylococcus aureus [1]; [9]): 200500 CFU/ml
- Log Reduction 50 min (Staphylococcus aureus [1]; [9]): 2.1
- log reduction at 5000 µM (Staphylococcus aureus [2]; [10]): 0.1
- Average Viability CFU/ml 60 min (Staphylococcus aureus [2]; [10]): 18700000 CFU/ml

Compound: COC(=O)[C@@H](N)CCCCN.Cl.Cl [L-Lysine methyl ester dihydrochloride]
- Average Viability CFU/ml 60 min (Staphylococcus aureus [1]; [11]): 0 CFU/ml
- Log Reduction 60 min (Staphylococcus aureus [1]; [11]): 7.4
- log reduction at 5000 µM (Staphylococcus aureus [2]): 0
- Average Viability CFU/ml 60 min (Staphylococcus aureus [2]; amino acid analogue alone 5 mM, MPO 0, GO 0, no glucose, blood): 21500000 CFU/ml

Compound: NCCCC[C@H](N)C(=O)O [L-Lysine]
- Average Viability CFU/ml 30 min (Staphylococcus aureus [1]; [12]): 775000 CFU/ml
- Average Viability CFU/ml 60 min (Staphylococcus aureus [1]; [12]): 53000 CFU/ml
- Log Reduction 30 min (Staphylococcus aureus [1]; [12]): 1.5
- Log Reduction 60 min (Staphylococcus aureus [1]; [12]): 2.7
- Average Viability CFU/ml 30 min (Staphylococcus aureus [1]; [13]): 675000 CFU/ml
- Average Viability CFU/ml 60 min (Staphylococcus aureus [1]; [13]): 47 CFU/ml
- Log Reduction 30 min (Staphylococcus aureus [1]; [13]): 1.6
- Log Reduction 60 min (Staphylococcus aureus [1]; [13]): 5.7
- Average Viability CFU/ml 30 min (Staphylococcus aureus [1]; [14]): 6050 CFU/ml
- Average Viability CFU/ml 60 min (Staphylococcus aureus [1]; [14]): 770 CFU/ml
- Log Reduction 30 min (Staphylococcus aureus [1]; [14]): 3.6
- Log Reduction 60 min (Staphylococcus aureus [1]; [14]): 4.5
- Average Viability CFU/ml 30 min (Staphylococcus aureus [1]; [15]): 7 CFU/ml
- Average Viability CFU/ml 60 min (Staphylococcus aureus [1]; [15]): 3 CFU/ml
- Log Reduction 30 min (Staphylococcus aureus [1]; [15]): 6.5
- Log Reduction 60 min (Staphylococcus aureus [1]; [15]): 6.8
- Average Viability CFU/ml 30 min (Staphylococcus aureus [1]; [16]): 6450 CFU/ml
- Average Viability CFU/ml 60 min (Staphylococcus aureus [1]; [16]): 620 CFU/ml
- Log Reduction 30 min (Staphylococcus aureus [1]; [16]): 3.6
- Log Reduction 60 min (Staphylococcus aureus [1]; [16]): 4.6
- Average Viability CFU/ml 30 min (Staphylococcus aureus [1]; [17]): 5 CFU/ml
- Average Viability CFU/ml 60 min (Staphylococcus aureus [1]; [17]): 5 CFU/ml
- Log Reduction 30 min (Staphylococcus aureus [1]; [17]): 6.6
- Log Reduction 60 min (Staphylococcus aureus [1]; [17]): 6.6
- Average Viability CFU/ml 30 min (Staphylococcus aureus [1]; [18]): 5050000 CFU/ml
- Average Viability CFU/ml 60 min (Staphylococcus aureus [1]; [18]): 620000 CFU/ml
- Log Reduction 30 min (Staphylococcus aureus [1]; [18]): 0.7
- Log Reduction 60 min (Staphylococcus aureus [1]; [18]): 1.6
- Average Viability CFU/ml 30 min (Staphylococcus aureus [1]; [19]): 6200000 CFU/ml
- Average Viability CFU/ml 60 min (Staphylococcus aureus [1]; [19]): 4950 CFU/ml
- Log Reduction 30 min (Staphylococcus aureus [1]; [19]): 0.6
- Log Reduction 60 min (Staphylococcus aureus [1]; [19]): 3.7
- Log 10 (CFU + 1) Survivors (Staphylococcus aureus [1]; MPO 25 μg/mL, AA 5 mM, 30 min): 5.8
- Log 10 (CFU + 1) Survivors (Staphylococcus aureus [1]; MPO 25 μg/mL, AA 5 mM, 60 min): 1.6
- Log 10 (CFU + 1) Survivors (Staphylococcus aureus [1]; MPO 25 μg/mL, AA […], 30 min): 6.8
- Log 10 (CFU + 1) Survivors (Staphylococcus aureus [1]; MPO 25 μg/mL, AA […], 60 min): 3.7
- Log 10 (CFU + 1) Survivors (Staphylococcus aureus [1]; MPO 100 μg/mL, AA 5 mM, 30 min): 0.9
- Log 10 (CFU + 1) Survivors (Staphylococcus aureus [1]; MPO 100 μg/mL, AA 5 mM, 60 min): 0.5
- Log 10 (CFU + 1) Survivors (Staphylococcus aureus [1]; [3]): 0.8
- Log 10 (CFU + 1) Survivors (Staphylococcus aureus [1]; [4]): 0.8
- Average Viability CFU/ml 60 min (Staphylococcus aureus [1]; [20]): 0 CFU/ml
- Log 10 (CFU + 1) Survivors 60 min (Staphylococcus aureus [1]; [20]): 0.0
- Log Reduction 60 min (Staphylococcus aureus [1]; [20]): 7.4
- Average Viability CFU/ml 50 min (Staphylococcus aureus [1]; [6]): 16200000 CFU/ml
- Log Reduction 50 min (Staphylococcus aureus [1]; [6]): 0.2
- Average Viability CFU/ml 50 min (Staphylococcus aureus [1]; [7]): 18900000 CFU/ml
- Log Reduction 50 min (Staphylococcus aureus [1]; [7]): 0.2
- Average Viability CFU/ml 50 min (Staphylococcus aureus [1]; [21]): 11400000 CFU/ml
- Log Reduction 50 min (Staphylococcus aureus [1]; [21]): 0.3
- Average Viability CFU/ml 50 min (Staphylococcus aureus [1]; [22]): 16950000 CFU/ml
- Log Reduction 50 min (Staphylococcus aureus [1]; [22]): 0.2
- log reduction at 5000 µM (Staphylococcus aureus [2]): 0
- Average Viability CFU/ml 60 min (Staphylococcus aureus [2]; [10]): 21400000 CFU/ml
